Here are results for 14 compounds from PubChem BioAssay (NCI).

The structures appear in SMILES notation.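 Five compound concentrations were applied to cells in 96-well plates for 48 hours; endpoints were derived by simple linear interpolation of the resulting dose-response curve. GI50 marks 50% less growth. At the TGI there is no net growth.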

Some test systems named below: OVCAR-8 ovarian; HOP-18 NSCLC; RXF 393 renal; OVCAR-4 ovarian; LOX IMVI melanoma; SR leukemia; MOLT-4 leukemia; 786-0 renal; SK-MEL-2 melanoma; LXFL 529 NSCLC.
Test in all cases: NCI-60 cell line screen, 48 h

In the case of `Cc1ccccc1NC(=O)C(=O)C(c1cnc2ccc([N+](=O)[O-])cc2n1)[N+](=O)[O-]` (centres undefined), the TGI in the experiment on OVCAR-8 ovarian, in the experiment with HOP-18 NSCLC, with RXF 393 renal, in the experiment with OVCAR-4 ovarian, in the experiment with LOX IMVI melanoma and in the experiment with SR leukemia was greater than 100 µM throughout. In addition, the TGI in the experiment with MOLT-4 leukemia, in the experiment with 786-0 renal and with SK-MEL-2 melanoma was greater than 100 µM in each case.
In the case of `CCC(C)OC(=O)C1C2CCC(O2)C1C(=O)O` (centres undefined), the TGI with OVCAR-8 ovarian is greater than 100 µM; in the experiment with HOP-18 NSCLC, greater than 100 µM; with RXF 393 renal, greater than 56.2 µM; in the experiment with OVCAR-4 ovarian, greater than 100 µM; with LOX IMVI melanoma, greater than 58.3 µM; in the experiment with SR leukemia, 40.3 µM. For the same compound, the TGI with MOLT-4 leukemia is greater than 100 µM; in the experiment with 786-0 renal, greater than 62.7 µM; in the experiment with SK-MEL-2 melanoma, greater than 100 µM; with LXFL 529 NSCLC it was greater than 100 µM.
Take `N=C1N(c2ccccc2)C(=O)C23CCCC2C13N1CCOCC1` (centres undefined): the TGI in the experiment with OVCAR-8 ovarian, in the experiment on HOP-18 NSCLC, with RXF 393 renal, in the experiment on OVCAR-4 ovarian, in the experiment with SR leukemia and with MOLT-4 leukemia was greater than 100 µM each time. Moreover, the TGI with 786-0 renal, with SK-MEL-2 melanoma and with LXFL 529 NSCLC was greater than 100 µM in each case.
For `CN=C1Nc2ccc(Cl)cc2C(c2ccccc2)=NN1C`, the TGI in the experiment on OVCAR-8 ovarian was greater than 100 µM; with RXF 393 renal, 81.1 µM; in the experiment on OVCAR-4 ovarian it was greater than 100 µM; with LOX IMVI melanoma it was greater than 100 µM; in the experiment with MOLT-4 leukemia, greater than 100 µM; in the experiment with 786-0 renal it was greater than 100 µM. Also, the TGI in the experiment with SK-MEL-2 melanoma and in the experiment on LXFL 529 NSCLC was greater than 100 µM throughout.
As for `COC(=O)C1=CN=C(C(=O)OC)NN1`, the TGI in the experiment with OVCAR-8 ovarian, with HOP-18 NSCLC, in the experiment on RXF 393 renal, in the experiment on OVCAR-4 ovarian, with SR leukemia and in the experiment with MOLT-4 leukemia was greater than 100 µM each time. Also, the TGI in the experiment with 786-0 renal, with SK-MEL-2 melanoma and in the experiment with LXFL 529 NSCLC was greater than 100 µM each time.
On to `CN(C)C(=O)/N=c1\ss/c(=N\C(=S)N(C)C)n1-c1ccccc1`, for which the TGI was greater than 61.1 µM in the experiment on OVCAR-8 ovarian; greater than 100 µM with HOP-18 NSCLC; greater than 79.9 µM with RXF 393 renal; 60.2 µM in the experiment with OVCAR-4 ovarian; greater than 46 µM in the experiment on LOX IMVI melanoma; greater than 100 µM in the experiment on SR leukemia. Moreover, the TGI in the experiment on MOLT-4 leukemia was greater than 82.1 µM; with 786-0 renal, 47.1 µM; in the experiment on SK-MEL-2 melanoma, greater than 100 µM; with LXFL 529 NSCLC, greater than 88.4 µM. The GI50 with HOP-18 NSCLC is greater than 100 µM; with MOLT-4 leukemia, 0.158 µM.
Turning to `COc1cc2nc(Sc3c([N+](=O)[O-])ncn3C)[nH]c2cc1OC`, the TGI in the experiment with OVCAR-8 ovarian is 58 µM; in the experiment with HOP-18 NSCLC, greater than 100 µM; with RXF 393 renal it was 43.9 µM; in the experiment on OVCAR-4 ovarian, greater than 100 µM; in the experiment with LOX IMVI melanoma, greater than 100 µM; with SR leukemia, 60.2 µM. In addition, the TGI in the experiment with MOLT-4 leukemia is 44.4 µM; with 786-0 renal it was greater than 100 µM; in the experiment with LXFL 529 NSCLC, 32 µM.
With `NC(=O)N/N=C(\C(=O)C(=O)Nc1ccc(Cl)c(C(F)(F)F)c1)c1nc2ccc(C(=O)c3ccccc3)cc2[nH]c1=O`, the TGI in the experiment on OVCAR-8 ovarian, in the experiment with HOP-18 NSCLC, in the experiment on RXF 393 renal, in the experiment on OVCAR-4 ovarian, in the experiment on SR leukemia and with MOLT-4 leukemia was greater than 100 µM throughout. The TGI in the experiment with 786-0 renal and in the experiment on SK-MEL-2 melanoma was greater than 100 µM in each case.
In the case of `O=C1C(=O)N(C(=O)c2ccc(Cl)c(Cl)c2)c2ccc(Cl)cc21`, the TGI with OVCAR-8 ovarian, with HOP-18 NSCLC, with RXF 393 renal, with OVCAR-4 ovarian, in the experiment on LOX IMVI melanoma and with SR leukemia was greater than 100 µM in each case. The TGI in the experiment on MOLT-4 leukemia, in the experiment with 786-0 renal and in the experiment on LXFL 529 NSCLC was greater than 100 µM each time.
As for `CC(C)NCC(O)COC(=O)c1cccs1` (centres undefined), the TGI in the experiment with OVCAR-8 ovarian, in the experiment on RXF 393 renal, in the experiment with OVCAR-4 ovarian, with LOX IMVI melanoma, with MOLT-4 leukemia and in the experiment on 786-0 renal was greater than 100 µM each time. Moreover, the TGI in the experiment on SK-MEL-2 melanoma and in the experiment with LXFL 529 NSCLC was greater than 100 µM each time.
`COC(=O)/C(C#N)=C1\CCC(O)N1C` (centres undefined): the TGI in the experiment with OVCAR-8 ovarian, in the experiment with HOP-18 NSCLC, in the experiment with RXF 393 renal, with OVCAR-4 ovarian, with LOX IMVI melanoma and with MOLT-4 leukemia was greater than 100 µM in each case. Moreover, the TGI in the experiment with 786-0 renal, in the experiment with SK-MEL-2 melanoma and in the experiment on LXFL 529 NSCLC was greater than 100 µM in each case.
With `COC(=O)C(C(=O)C(=O)Nc1ccccc1C(C)=O)c1nc2ccc(Cl)cc2[nH]c1=O` (centres undefined), the TGI in the experiment with OVCAR-8 ovarian, in the experiment on HOP-18 NSCLC, in the experiment on RXF 393 renal, in the experiment with OVCAR-4 ovarian, in the experiment with LOX IMVI melanoma and in the experiment with MOLT-4 leukemia was greater than 100 µM in each case. In addition, the TGI with 786-0 renal, with SK-MEL-2 melanoma and in the experiment on LXFL 529 NSCLC was greater than 100 µM each time.
In the case of `Cc1oc2c(C)c(O)c3c(c2c1C1(C)OCCO1)C(=O)C=C(Cl)C3=O`, the TGI in the experiment with OVCAR-8 ovarian, in the experiment on RXF 393 renal, with OVCAR-4 ovarian, in the experiment on LOX IMVI melanoma, with SR leukemia and with MOLT-4 leukemia was greater than 100 µM each time. Moreover, the TGI in the experiment with 786-0 renal, in the experiment with SK-MEL-2 melanoma and in the experiment on LXFL 529 NSCLC was greater than 100 µM in each case.
Consider `S=c1nc2[nH]ncc2c(N/N=C/c2ccccc2)[nH]1`, for which the GI50 with OVCAR-8 ovarian was greater than 100 µM; with RXF 393 renal, greater than 100 µM; in the experiment with OVCAR-4 ovarian, greater than 100 µM; with LOX IMVI melanoma, 64 µM; in the experiment with SR leukemia, greater than 100 µM; with MOLT-4 leukemia it was greater than 100 µM. Moreover, the GI50 with 786-0 renal and in the experiment with SK-MEL-2 melanoma was greater than 100 µM in each case. Besides, the TGI in the experiment on OVCAR-8 ovarian, with RXF 393 renal, in the experiment on OVCAR-4 ovarian, in the experiment with LOX IMVI melanoma, with SR leukemia and with MOLT-4 leukemia was greater than 100 µM in each case. Besides, the TGI in the experiment on 786-0 renal and in the experiment on SK-MEL-2 melanoma was greater than 100 µM throughout.
